# Measured values reported in ChEMBL document CHEMBL1143091, “Synthesis and SAR studies of biaryloxy-substituted triazoles as antifungal agents” (2008).
# Columns and labels:
# Trichophyton rubrum = assay: Antimicrobial activity against Trichophyton rubrum isolates; type: functional
# Candida tropicalis = assay: Antimicrobial activity against Candida tropicalis isolates; type: functional
# Candida parapsilosis = assay: Antimicrobial activity against Candida parapsilosis isolates; conditions: Lodderomyces parapsilosis
# Aspergillus fumigatus = assay: Antimicrobial activity against Aspergillus fumigatus isolates; type: functional
# Cryptococcus neoformans = assay: Antimicrobial activity against Cryptococcus neoformans ATCC 32609; type: functional
# Fonsecaea compacta = assay: Antimicrobial activity against Fonsecaea compacta isolates; type: functional
# Nannizzia gypsea = assay: Antimicrobial activity against Microsporum gypseum isolates; type: functional
# Candida albicans = assay: Antimicrobial activity against Candida albicans ATCC 76615; type: functional
Structure (SMILES),MIC (Trichophyton rubrum),MIC (Candida tropicalis),MIC (Candida parapsilosis),MIC (Aspergillus fumigatus),MIC (Cryptococcus neoformans),MIC (Fonsecaea compacta),MIC (Nannizzia gypsea),MIC (Candida albicans)
O=C(Nc1ccc(-c2ccc(OCC(O)(Cn3cncn3)c3ccc(F)cc3F)cc2)cn1)c1ccc(CN2CCCCC2)cc1 (stereo unspecified),0.25 µg/mL,0.0625 µg/mL,0.0625 µg/mL,4 µg/mL,1 µg/mL,1 µg/mL,1 µg/mL,0.0625 µg/mL
CCN(CC)Cc1ccc(C(=O)Nc2ccc(-c3ccc(OCC(O)(Cn4cncn4)c4ccc(F)cc4F)cc3)cn2)cc1 (stereo unspecified),1 µg/mL,0.0625 µg/mL,0.25 µg/mL,> 64 µg/mL,4 µg/mL,0.25 µg/mL,1 µg/mL,0.0625 µg/mL
COc1ccc(C(=O)Nc2ccc(-c3ccc(OCC(O)(Cn4cncn4)c4ccc(F)cc4F)cc3)cn2)cc1 (stereo unspecified),0.25 µg/mL,0.25 µg/mL,0.25 µg/mL,64 µg/mL,1 µg/mL,0.25 µg/mL,1 µg/mL,0.0625 µg/mL
OCc1ccc(-c2ccc(OCC(O)(Cn3cncn3)c3ccc(F)cc3F)cc2)cc1 (stereo unspecified),1 µg/mL,0.0156 µg/mL,0.0625 µg/mL,> 64 µg/mL,1 µg/mL,16 µg/mL,1 µg/mL,0.0156 µg/mL
CCCCCCCNc1ccc(-c2ccc(OCC(O)(Cn3cncn3)c3ccc(F)cc3F)cc2)cn1 (stereo unspecified),0.25 µg/mL,0.25 µg/mL,1 µg/mL,> 64 µg/mL,1 µg/mL,1 µg/mL,1 µg/mL,0.25 µg/mL
CCNc1ccc(-c2ccc(OCC(O)(Cn3cncn3)c3ccc(F)cc3F)cc2)cn1 (stereo unspecified),> 64 µg/mL,0.0625 µg/mL,0.0625 µg/mL,> 64 µg/mL,16 µg/mL,1 µg/mL,> 64 µg/mL,0.0625 µg/mL
C[C@@H]1COC[C@H](C)N1Cc1ccc(C(=O)Nc2ccc(-c3ccc(OCC(O)(Cn4cncn4)c4ccc(F)cc4F)cc3)cn2)cc1 (stereo partly specified),> 64 µg/mL,0.0625 µg/mL,0.0625 µg/mL,> 64 µg/mL,4 µg/mL,16 µg/mL,> 64 µg/mL,0.0625 µg/mL
Cc1cccc(C(=O)Nc2ccc(-c3ccc(OCC(O)(Cn4cncn4)c4ccc(F)cc4F)cc3)cn2)c1 (stereo unspecified),1 µg/mL,0.25 µg/mL,0.25 µg/mL,64 µg/mL,0.25 µg/mL,1 µg/mL,1 µg/mL,0.25 µg/mL
OC(Cn1cncn1)(Cn1cncn1)c1ccc(F)cc1F [FLUCONAZOLE],1 µg/mL,1 µg/mL,4 µg/mL,> 64 µg/mL,0.25 µg/mL,16 µg/mL,1 µg/mL,16 µg/mL
CN(C)Cc1ccc(-c2ccc(OCC(O)(Cn3cncn3)c3ccc(F)cc3F)cc2)cc1 (stereo unspecified),0.0625 µg/mL,0.0625 µg/mL,0.25 µg/mL,64 µg/mL,4 µg/mL,4 µg/mL,1 µg/mL,0.25 µg/mL
O=C(CN1CCNCC1)Nc1ccc(-c2ccc(OCC(O)(Cn3cncn3)c3ccc(F)cc3F)cc2)cn1 (stereo unspecified),1 µg/mL,1 µg/mL,4 µg/mL,> 64 µg/mL,64 µg/mL,1 µg/mL,1 µg/mL,16 µg/mL
O=Cc1ccc(-c2ccc(OCC(O)(Cn3cncn3)c3ccc(F)cc3F)cc2)cc1 (stereo unspecified),1 µg/mL,0.25 µg/mL,> 64 µg/mL,> 64 µg/mL,1 µg/mL,0.25 µg/mL,0.25 µg/mL,0.0625 µg/mL
OCCNCc1ccc(-c2ccc(OCC(O)(Cn3cncn3)c3ccc(F)cc3F)cc2)cc1 (stereo unspecified),1 µg/mL,1 µg/mL,1 µg/mL,> 64 µg/mL,64 µg/mL,16 µg/mL,16 µg/mL,4 µg/mL
O=C(O)c1ccc(NCc2ccc(-c3ccc(OCC(O)(Cn4cncn4)c4ccc(F)cc4F)cc3)cc2)cc1 (stereo unspecified),0.25 µg/mL,0.0039 µg/mL,0.0625 µg/mL,16 µg/mL,> 64 µg/mL,1 µg/mL,1 µg/mL,0.0156 µg/mL
CCC(C)n1ncn(-c2ccc(N3CCN(c4ccc(OC[C@H]5CO[C@](Cn6cncn6)(c6ccc(Cl)cc6Cl)O5)cc4)CC3)cc2)c1=O (stereo partly specified) [ITRACONAZOLE],0.0156 µg/mL,0.25 µg/mL,0.0312 µg/mL,1 µg/mL,1 µg/mL,0.0625 µg/mL,0.0625 µg/mL,0.5 µg/mL
CN(C/C=C/C#CC(C)(C)C)Cc1cccc2ccccc12 [TERBINAFINE],0.0625 µg/mL,0.25 µg/mL,0.25 µg/mL,0.0625 µg/mL,0.25 µg/mL,0.0625 µg/mL,0.0156 µg/mL,1 µg/mL
CN(Cc1ccc(-c2ccc(OCC(O)(Cn3cncn3)c3ccc(F)cc3F)cc2)cc1)c1ccccc1 (stereo unspecified),16 µg/mL,0.25 µg/mL,1 µg/mL,> 64 µg/mL,1 µg/mL,16 µg/mL,> 64 µg/mL,1 µg/mL
